“Also recorded” adds a separate entry of the source. Marks after values point to notes of the source that are not given here.
What was measured:
Format in all cases: in vivo, mouse
EAE in wild-type B6 mice [1] = assay: EAE clinical scoring, G-1 vs E2 pellets at different doses, wild-type B6 mice (Example III); details: for CDI / Daily / Mortality / Onset / Peak / Incidence: 34 days
EAE in wild-type B6 mice [2] = assay: EAE clinical scoring, daily s.c. injection of G-1 or E2, wild-type B6 mice
EAE in GPR30KO mice = assay: EAE clinical scoring, G-1 or E2 pellets, GPR30KO mice (Example IV); details: for CDI / Daily / Mortality / Onset / Peak / Incidence: GPR30KO
EAE in PD-1KO mice = assay: EAE clinical scoring, G-1 or E2 pellets, PD-1KO mice (Example IX); details: for protection against clinical EAE (in words): PD-1KO mice; for CDI / Daily / Mortality / Onset / Peak / Incidence: PD-1KO
[3] = system: CNS infiltration, demyelination and axonal damage in spinal cord of WT EAE mice; assay: Spinal cord histology (H&E, LFB-PAS, SMI312, SMI32), WT EAE mice; details: for immune cell infiltration and demyelination in the CNS (H&E, LFB-PAS): WT mice of FIG. 2A experiment, FIG. 4 upper panels; for axons in the spinal cords (SMI312 staining) / axonal damage in spinal cord sections / SMI32 staining in white matter of spinal cords (ongoing axonal damage): WT mice; for axons in the spinal cords (SMI312 staining): FIG. 4 lower left panel; for axonal damage in spinal cord sections: FIG. 4 lower panels; for SMI32 staining in white matter of spinal cords (ongoing axonal damage): FIG. 4 lower right panel
Text: Spinal cords were dissected out for histology. Intact spinal columns were removed and dissected after fixation in 4% paraformaldehyde, dehydrated and embedding in paraffin. To examine neuroinflammation, the sections were stained with hematoxylin and eosin (H&E). To examine demyelination, the sections were stained with Luxon fast blue plus periodic acid Schiff (LFB-PAS). The mice from the clinical experiment shown in FIG. 2A were euthanized at the end of the experiment and spinal cords were dissected out for histology. Intact spinal cords were removed and dissected after fixation in 4% paraformaldehyde, dehydrated and embedding in paraffin. To examine neuroinflammation, the sections were stained with hematoxylin and eosin (H&E). To examine demyelination, the sections were stained with Luxon fast blue plus periodic acid Schiff (LFB-PAS). To visualize axonal damage, spinal cords were fixed in 4% paraformaldehyde (maass/volume in PBS, pH 7.4) at 4° C. for at least 48 h. The spinal cords were dissected out from the columns, cut into sections 1-2 mm in length from the sampled thoracic or […] cords, dehydrated and embedded in paraffin blocks. Then, 10 μm thick sections were cut from paraffin blocks and mounted onto pre-cleaned microscope slides. The sections were dewaxed and rehydrated sequentially by xylene (2 min), gradient ethanol (100%, 95%, 85%, 2 min each) and PBS (5 min) and then cooked (120° C.) in antigen unmasking agent Trilogy® (Cell Marque, Hot Springs, Ark.) for 10 min in a pressure steamer. […] The slides were counterstained with hematoxylin for 30-60 s to visualize nuclei, washed with tap water, dehydrated, and mounted with Cytoseal™ XYL mounting medium (Richard-Allan Scientific, Kalamazoo, Mich.). The sections were analyzed by light microscopy after staining and recorded with a digital camera.

[4] = system: splenocytes and lymph node cells of WT EAE mice; assay: Ex vivo T cell proliferation to mMOG-35-55, WT mice; details: for ex vivo T cell proliferation responses to mMog-35-55 peptide: G-1 and E2 implanted WT mice, FIG. 2C
Method: (§1) Splenocytes and lymph node cells were harvested ex-vivo from G-1 and E2 implanted mice and cultured in a 96-well flat bottom tissue culture plate at 4×10^5 cells/well in stimulation medium in the presence of APC, irradiated (2500 rad) syngenic thymocytes at a ration of 1:10 (T:APCs) wither with or without mMog 35-55 peptide at varying concentrations. The cells were incubated for 3 days at 37° C. in 7% CO2 and pulsed with 0.5 μCi of [^3H] thymidine (Perkin-Elmer, Boston, Mass.) for the final 18 h of incubation. The cells were harvested onto glass fiber filters, and incorporated radioactivity was measured by a liquid scintillation counter. The cpm values (mean±SD) were calculated from triplicate wells. Stimulation index (SI) was calculated by dividing the experimental cpm by the control cpm.

[5] = system: T cells of GPR30KO EAE mice; assay: Ex vivo T cell proliferation to mMOG-35-55, GPR30KO mice; details: for T cell proliferation to mMog-35-55: Example IV
Method: as §1

[6] = system: PD-L1 and PD-L2 expression; assay: PD-L1 and PD-L2 expression on APCs and T cells by flow cytometry (Example VIII); details: treated WT EAE mice, FIG. 5C
[7] = G-1 injection, 20 μg/mouse/day s.c., 20 days
[8] = 1.8 mg/40 day G-1 pellet, 29 days
[9] = 1.8 mg/40 day G-1 pellet, 20 days
[10] = E2 injection, 1 μg/mouse/day s.c., 20 days
[11] = 2.5 mg/60 day E2 pellet, 29 days
[12] = 2.5 mg/60 day E2 pellet, 20 days

Q: Which results are given for `CC(=O)c1ccc2c(c1)C1C=CCC1C(c1cc3c(cc1Br)OCO3)N2` (stereo not drawn) [G-1]?
A: CDI (EAE in wild-type B6 mice [1]; 0.01 mg G-1 pellet): 43.8 ± 39.9; Daily (EAE in wild-type B6 mice [1]; 0.01 mg G-1 pellet): 1.8 ± 1.6; Mortality (EAE in wild-type B6 mice [1]; 0.01 mg G-1 pellet): 0/6; Onset (EAE in wild-type B6 mice [1]; 0.01 mg G-1 pellet): 13.6 ± 1.6; Peak (EAE in wild-type B6 mice [1]; 0.01 mg G-1 pellet): 3.1 ± 1.7; Incidence (EAE in wild-type B6 mice [1]; 0.01 mg/40 day release G-1 pellet): 5/6; CDI (EAE in wild-type B6 mice [1]; 0.1 mg G-1 pellet): 18.8 ± 28.3; Daily (EAE in wild-type B6 mice [1]; 0.1 mg G-1 pellet): 0.75 ± 1.3; Mortality (EAE in wild-type B6 mice [1]; 0.1 mg G-1 pellet): 0/6; Onset (EAE in wild-type B6 mice [1]; 0.1 mg G-1 pellet): 16.7 ± 2.3; Peak (EAE in wild-type B6 mice [1]; 0.1 mg G-1 pellet): 1.5 ± 1.6; Incidence (EAE in wild-type B6 mice [1]; 0.1 mg/40 day release G-1 pellet): 3/6; CDI (EAE in wild-type B6 mice [1]; 1.8 mg G-1 pellet): 0**; Daily (EAE in wild-type B6 mice [1]; 1.8 mg G-1 pellet): 0**; Mortality (EAE in wild-type B6 mice [1]; 1.8 mg G-1 pellet): 0/7; Peak (EAE in wild-type B6 mice [1]; 1.8 mg G-1 pellet): 0**; Incidence (EAE in wild-type B6 mice [1]; 1.8 mg/40 day release G-1 pellet one week before immunization): 0/7**; protection from clinical EAE (in words) (EAE in wild-type B6 mice [1]; 1.8 mg/40 day release G-1 pellets): completely protected; clinical EAE (in words), dose dependence (EAE in wild-type B6 mice [1]; G-1 pellets 1.8, 0.1 or 0.01 mg/40 day release): delayed and ameliorated EAE in a dose-dependent manner; protection from clinical EAE compared with E2 (EAE in wild-type B6 mice [1]; lower doses of G-1 pellets): less effective than E2; protection against EAE (in words) (EAE in wild-type B6 mice [2]; G-1 20 μg/mouse/day s.c. injections): partially protective; CDI (EAE in wild-type B6 mice [2]; [7]): 19.7 ± 11.3; Daily (EAE in wild-type B6 mice [2]; [7]): 2.7 ± 1.3; Mortality (EAE in wild-type B6 mice [2]; [7]): 1/8; Onset (EAE in wild-type B6 mice [2]; [7]): 13.7 ± 1.3; Peak (EAE in wild-type B6 mice [2]; [7]): 3.7 ± 1.6; Incidence (EAE in wild-type B6 mice [2]; G-1 injection, 20 μg/mouse/day s.c., euthanized 20 days after immunization): 6/8; protection against EAE (in words) (EAE in GPR30KO mice; G-1 1.8 mg/40 day pellet, GPR30KO mice): completely ineffective; CDI (EAE in GPR30KO mice; [8]): 59.9 ± 13.4; Daily (EAE in GPR30KO mice; [8]): 3.0 ± 0.7; Mortality (EAE in GPR30KO mice; [8]): 0/8; Onset (EAE in GPR30KO mice; [8]): 13.8 ± 1.2; Peak (EAE in GPR30KO mice; [8]): 4.5 ± 0.7; Incidence (EAE in GPR30KO mice; 1.8 mg/40 day release G-1 pellet, concluded 29 days after immunization): 8/8; protection against clinical EAE (in words) (EAE in PD-1KO mice; G-1 1.8 mg/40 day pellet): failed to protect; CDI (EAE in PD-1KO mice; [9]): 30.6 ± 9.1; Daily (EAE in PD-1KO mice; [9]): 2.7 ± 0.8; Mortality (EAE in PD-1KO mice; [9]): 1/5; Onset (EAE in PD-1KO mice; [9]): 13.8 ± 1.3; Peak (EAE in PD-1KO mice; [9]): 4.8 ± 0.6; Incidence (EAE in PD-1KO mice; 1.8 mg/40 day release G-1 pellet, euthanized after 20 days): 5/5; immune cell infiltration and demyelination in the CNS (H&E, LFB-PAS) [3]: markedly ameliorated; also recorded: reduced; axons in the spinal cords (SMI312 staining) [3]: well preserved; axonal damage in spinal cord sections [3]: reduced the level of axonal damage; SMI32 staining in white matter of spinal cords (ongoing axonal damage) [3]: much less SMI32 staining; ex vivo T cell proliferation responses to mMog-35-55 peptide [4]: neither G-1 nor E2 treatment significantly altered; T cell proliferation to mMog-35-55 [5]: Neither G-1 nor E2 affected; PD-L1 expression on B cells and macrophages [6]: upregulated; expression of PD-L2 [6]: essentially no effect

Q: What does the source list for `C[C@]12CC[C@@H]3c4ccc(O)cc4CC[C@H]3[C@@H]1CC[C@@H]2O` [E2, 17β estradiol]?
A: CDI (EAE in wild-type B6 mice [1]; 0.025 mg E2 pellet): 37.0 ± 21.6; Daily (EAE in wild-type B6 mice [1]; 0.025 mg E2 pellet): 1.7 ± 1.0; Mortality (EAE in wild-type B6 mice [1]; 0.025 mg E2 pellet): 0/5; Onset (EAE in wild-type B6 mice [1]; 0.025 mg E2 pellet): 14.8 ± 0.5; Peak (EAE in wild-type B6 mice [1]; 0.025 mg E2 pellet): 2.8 ± 1.6; Incidence (EAE in wild-type B6 mice [1]; 0.025 mg/60 day release E2 pellet): 4/5; CDI (EAE in wild-type B6 mice [1]; 0.1 mg E2 pellet): 9.1 ± 14.8; Daily (EAE in wild-type B6 mice [1]; 0.1 mg E2 pellet): 0.3 ± 0.6; Mortality (EAE in wild-type B6 mice [1]; 0.1 mg E2 pellet): 0/10; Onset (EAE in wild-type B6 mice [1]; 0.1 mg E2 pellet): 21.0 ± 6.1; Peak (EAE in wild-type B6 mice [1]; 0.1 mg E2 pellet): 0.8 ± 1.2; Incidence (EAE in wild-type B6 mice [1]; 0.1 mg/60 day release E2 pellet): 3/10**; CDI (EAE in wild-type B6 mice [1]; 2.5 mg E2 pellet): 0**; Daily (EAE in wild-type B6 mice [1]; 2.5 mg E2 pellet): 0**; Mortality (EAE in wild-type B6 mice [1]; 2.5 mg E2 pellet): 0/7; Peak (EAE in wild-type B6 mice [1]; 2.5 mg E2 pellet): 0**; Incidence (EAE in wild-type B6 mice [1]; 2.5 mg/60 day release E2 pellet): 0/7**; protection from clinical EAE (in words) (EAE in wild-type B6 mice [1]; 2.5 mg/60 day release E2 pellets): completely protected; protection against EAE (in words) (EAE in wild-type B6 mice [2]; E2 1 μg/mouse/day s.c. injections): partially protective; CDI (EAE in wild-type B6 mice [2]; [10]): 10.5 ± 13.9; Daily (EAE in wild-type B6 mice [2]; [10]): 2.3 ± 0.3; Incidence (EAE in wild-type B6 mice [2]; [10]): 3/8*; Mortality (EAE in wild-type B6 mice [2]; [10]): 1/8; Onset (EAE in wild-type B6 mice [2]; [10]): 15.3 ± 1.5; Peak (EAE in wild-type B6 mice [2]; [10]): 2.3 ± 2.9; protective effect against EAE (in words) (EAE in GPR30KO mice; E2 2.5 mg/60 day pellet, GPR30KO mice): only partially offset by the absence of GPR30; CDI (EAE in GPR30KO mice; [11]): 17.2 ± 17.4; Daily (EAE in GPR30KO mice; [11]): 3.7 ± 1.3; Mortality (EAE in GPR30KO mice; [11]): 0/7; Onset (EAE in GPR30KO mice; [11]): 18.0 ± 1.4; Peak (EAE in GPR30KO mice; [11]): 2.5 ± 2.3; Incidence (EAE in GPR30KO mice; 2.5 mg/60 day release E2 pellet, 29 days): 4/7; protection against clinical EAE (in words) (EAE in PD-1KO mice; E2 2.5 mg/60 day pellet): retained partial efficacy; CDI (EAE in PD-1KO mice; [12]): 16.4 ± 6.3; Daily (EAE in PD-1KO mice; [12]): 1.5 ± 0.6; Mortality (EAE in PD-1KO mice; [12]): 0/5; Onset (EAE in PD-1KO mice; [12]): 16.4 ± 0.9; Peak (EAE in PD-1KO mice; [12]): 4.1 ± 0.8; Incidence (EAE in PD-1KO mice; 2.5 mg/60 day release E2 pellet, 20 days): 5/5; pathological signs of EAE in CNS (immune cell infiltration and demyelination) ([3]; E2-treated WT mice, Example II, FIG. 1B): no pathological signs of EAE; immune cell infiltration and demyelination in the CNS (H&E, LFB-PAS) [3]: markedly ameliorated; axons in the spinal cords (SMI312 staining) [3]: well preserved; axonal damage in spinal cord sections [3]: reduced the level of axonal damage; SMI32 staining in white matter of spinal cords (ongoing axonal damage) [3]: much less SMI32 staining; T-cell responses to MOG peptide ([4]; E2 treatment, WT mice, FIG. 1C): similarly reduced; ex vivo T cell proliferation responses to mMog-35-55 peptide [4]: neither G-1 nor E2 treatment significantly altered; T-cell responses to MOG peptide ([5]; E2 treatment, FIG. 1C): similarly reduced; T cell proliferation to mMog-35-55 [5]: Neither G-1 nor E2 affected; PD-L1 expression on B cells and macrophages [6]: upregulated; expression of PD-L2 [6]: essentially no effect
